Data reported in ChEMBL document CHEMBL1275437, “Prevalence of serotype 19A Streptococcus pneumoniae among isolates from U.S. children in 2005-2006 and activity of faropenem” (2008).
Converted amounts (≈) assume the structure as drawn.

Assays:
Format in all cases: functional
[1] = tested on: Streptococcus pneumoniae; assay: Antibacterial activity against Streptococcus pneumoniae serotype 23A assessed as percent resistant isolates by broth microdilution method
[2] = tested on: Streptococcus pneumoniae; assay: Antibacterial activity against Streptococcus pneumoniae serotype 23A by broth microdilution method
[3] = tested on: Streptococcus pneumoniae; assay: Antibacterial activity against Streptococcus pneumoniae serotype 22 assessed as percent susceptible isolates by broth microdilution method
[4] = tested on: Streptococcus pneumoniae; assay: Antibacterial activity against Streptococcus pneumoniae serotype 3 by broth microdilution method
[5] = tested on: Streptococcus pneumoniae; assay: Antibacterial activity against Streptococcus pneumoniae serotype 6A/C by broth microdilution method
[6] = tested on: Streptococcus pneumoniae; assay: Antibacterial activity against Streptococcus pneumoniae serotype 19F assessed as percent resistant isolates by broth microdilution method
[7] = tested on: Streptococcus pneumoniae; assay: Antibacterial activity against Streptococcus pneumoniae serotype 19F by broth microdilution method
[8] = tested on: Streptococcus pneumoniae; assay: Antibacterial activity against Streptococcus pneumoniae serotype 19A assessed as percent susceptible isolates by broth microdilution method
[9] = tested on: Streptococcus pneumoniae; assay: Antibacterial activity against Streptococcus pneumoniae serotype 35B assessed as percent resistant isolates by broth microdilution method
[10] = tested on: Streptococcus pneumoniae; assay: Antibacterial activity against Streptococcus pneumoniae serotype 22 by broth microdilution method
[11] = tested on: Streptococcus pneumoniae; assay: Antibacterial activity against Streptococcus pneumoniae serotype 33 assessed as percent susceptible isolates by broth microdilution method
[12] = tested on: Streptococcus pneumoniae; assay: Antibacterial activity against Streptococcus pneumoniae serotype 33 assessed as percent resistant isolates by broth microdilution method
[13] = tested on: Streptococcus pneumoniae; assay: Antibacterial activity against Streptococcus pneumoniae serotype 35B by broth microdilution method
[14] = tested on: Streptococcus pneumoniae; assay: Antibacterial activity against Streptococcus pneumoniae serotype 22 assessed as percent resistant isolates by broth microdilution method
[15] = tested on: Streptococcus pneumoniae; assay: Antibacterial activity against Streptococcus pneumoniae serotype 19A assessed as percent resistant isolates by broth microdilution method
[16] = tested on: Streptococcus pneumoniae; assay: Antibacterial activity against Streptococcus pneumoniae serotype 15A assessed as percent susceptible isolates by broth microdilution method
[17] = tested on: Streptococcus pneumoniae; assay: Antibacterial activity against Streptococcus pneumoniae serotype 19A by broth microdilution method
[18] = tested on: Streptococcus pneumoniae; assay: Antibacterial activity against Streptococcus pneumoniae serotype 3 assessed as percent resistant isolates by broth microdilution method
[19] = tested on: Streptococcus pneumoniae; assay: Antibacterial activity against Streptococcus pneumoniae serotype 33 by broth microdilution method
[20] = tested on: Streptococcus pneumoniae; assay: Antibacterial activity against Streptococcus pneumoniae serotype 15A by broth microdilution method
[21] = tested on: Streptococcus pneumoniae; assay: Antibacterial activity against Streptococcus pneumoniae serotype 35B assessed as percent susceptible isolates by broth microdilution method
[22] = tested on: Streptococcus pneumoniae; assay: Antibacterial activity against Streptococcus pneumoniae serotype 6A/C assessed as percent resistant isolates by broth microdilution method
[23] = tested on: Streptococcus pneumoniae; assay: Antibacterial activity against Streptococcus pneumoniae serotype 23A assessed as percent susceptible isolates by broth microdilution method
[24] = tested on: Streptococcus pneumoniae; assay: Antibacterial activity against Streptococcus pneumoniae serotype 3 assessed as percent susceptible isolates by broth microdilution method
[25] = tested on: Streptococcus pneumoniae; assay: Antibacterial activity against Streptococcus pneumoniae serotype 6A/C assessed as percent susceptible isolates by broth microdilution method
[26] = tested on: Streptococcus pneumoniae; assay: Antibacterial activity against Streptococcus pneumoniae serotype 19F assessed as percent susceptible isolates by broth microdilution method
[27] = tested on: Streptococcus pneumoniae; assay: Antibacterial activity against Streptococcus pneumoniae serotype 15A assessed as percent resistant isolates by broth microdilution method
[28] = Streptococcus pneumoniae, serotype 19F
[29] = Streptococcus pneumoniae, serotype 35B
[30] = Streptococcus pneumoniae, serotype 19A
[31] = Streptococcus pneumoniae, serotype 6A/C
[32] = Streptococcus pneumoniae, serotype 15A

| Compound | % resistant isolates [1] [%] | MIC90 [2] [µg/mL] | % susceptible isolates [3] [%] | MIC90 [4] [µg/mL] | MIC90 [5] [µg/mL] | MIC90 [7] [µg/mL] | percent susceptible isolates [8] [%] | MIC90 [10] [µg/mL] | % susceptible isolates [11] [%] | % resistant isolates [12] [%] | MIC90 [13] [µg/mL] | % resistant isolates [14] [%] | percent susceptible isolates [16] [%] | MIC90 [17] [µg/mL] | MIC90 [20] [µg/mL] | percent susceptible isolates [23] [%] | % susceptible isolates [24] [%] | percent susceptible isolates [25] [%] | percent susceptible isolates [26] [%] | % resistant isolates [18] [%] | also measured |
| --- | --- | --- | --- | --- | --- | --- | --- | --- | --- | --- | --- | --- | --- | --- | --- | --- | --- | --- | --- | --- | --- |
| CC[C@H]1OC(=O)[C@H](C)[C@@H](O[C@H]2C[C@@](C)(OC)[C@@H](O)[C@H](C)O2)[C@H](C)[C@@H](O[C@@H]2O[C@H](C)C[C@H](N(C)C)[C@H]2O)[C@](C)(O)C[C@@H](C)CN(C)[C@H](C)[C@@H](O)[C@]1(C)O [AZITHROMYCIN] | 0 | > 16 | 100 | 0.5 (≈ 0.668 µM) | 8 (≈ 10.7 µM) | > 16 | 36 | ≤ 0.12 | 42 | 0 | 16 (≈ 21.4 µM) | 0 | 7 | > 16 | > 16 | 79 | 93 | 31 | 29 |  | % resistant isolates [6, 28]: 71%; % resistant isolates [9, 29]: 27%; % resistant isolates [15, 30]: 64%; % resistant isolates ([18]; Streptococcus pneumoniae, serotype 3): 4%; MIC90 [19]: 16 µg/mL (≈ 21.4 µM); % susceptible isolates [21, 29]: 73%; % resistant isolates [22, 31]: 69%; % resistant isolates [27, 32]: 93% |
| C=CC1=C(C(=O)O)N2C(=O)[C@@H](NC(=O)/C(=N\O)c3csc(N)n3)[C@H]2SC1 [CEFDINIR] | 0 | 0.5 (≈ 1.26 µM) | 100 | 0.12 (≈ 0.303 µM) | 2 (≈ 5.06 µM) | > 8 | 46 | 0.12 (≈ 0.303 µM) | 100 | 0 | 4 (≈ 10.1 µM) | 0 | 72 | > 8 | 1 (≈ 2.53 µM) | 93 | 100 | 59 | 33 | 0 | % resistant isolates [6, 28]: 67%; % resistant isolates [9, 29]: 100%; % resistant isolates [15, 30]: 53%; MIC90 [19]: 0.12 µg/mL (≈ 0.303 µM); % susceptible isolates [21]: 0%; % resistant isolates [22, 31]: 15%; % resistant isolates [27, 32]: 7% |
| CO/N=C(\C(=O)N[C@@H]1C(=O)N2C(C(=O)OC(C)OC(C)=O)=C(COC(N)=O)CS[C@H]12)c1ccco1 (stereo not given in full) [CEFUROXIME AXETIL] | 0 | 1 (≈ 1.96 µM) | 100 | ≤ 0.5 | 4 (≈ 7.84 µM) | 32 (≈ 62.7 µM) | 46 | ≤ 0.5 | 100 | 0 | 4 (≈ 7.84 µM) | 0 | 72 | 16 (≈ 31.3 µM) | 4 (≈ 7.84 µM) | 93 | 100 | 64 | 33 | 0 | % resistant isolates [6, 28]: 67%; % resistant isolates [9, 29]: 100%; % resistant isolates [15, 30]: 52%; MIC90 [19]: ≤ 0.5 µg/mL; % susceptible isolates [21]: 0%; % resistant isolates [22, 31]: 15%; % resistant isolates [27, 32]: 21% |
| C[C@H]1COc2c(N3CCN(C)CC3)c(F)cc3c(=O)c(C(=O)O)cn1c23.C[C@H]1COc2c(N3CCN(C)CC3)c(F)cc3c(=O)c(C(=O)O)cn1c23.O [LEVOFLOXACIN] | 0 | 1 | 100 | 2 | 1 | 1 | 100 | 1 | 1 | 0 | 1 | 0 | 100 | 1 | 1 | 100 | 97 | 100 | 100 | 0 | % resistant isolates [6]: 0%; % resistant isolates [9]: 0%; % resistant isolates [15]: 0%; % susceptible isolates [21, 29]: 100%; % resistant isolates [22]: 0%; % resistant isolates [27]: 0% |
| CC1(C)S[C@@H]2[C@H](NC(=O)Cc3ccccc3)C(=O)N2[C@H]1C(=O)O [PENICILLIN G] | 0 | 0.5 (≈ 1.5 µM) | 100 | ≤ 0.03 | 1 (≈ 2.99 µM) | > 4 | 13 | ≤ 0.03 | 92 | 0 | 2 (≈ 5.98 µM) | 0 | 7 | 4 (≈ 12 µM) | 0.5 (≈ 1.5 µM) | 57 | 100 | 23 | 33 | 0 | % resistant isolates [6, 28]: 67%; % resistant isolates [9, 29]: 100%; % resistant isolates [15, 30]: 50%; MIC90 [19]: ≤ 0.03 µg/mL; % susceptible isolates [21]: 0%; % resistant isolates [22, 31]: 8%; % resistant isolates [27]: 0% |
| CC[C@H]1OC(=O)[C@H](C)C(=O)[C@H](C)[C@@H](O[C@@H]2O[C@H](C)C[C@H](N(C)C)[C@H]2O)[C@](C)(OC)C[C@@H](C)C(=O)[C@H](C)[C@H]2N(CCCCn3cnc(-c4cccnc4)c3)C(=O)O[C@]12C [TELITHROMYCIN] | 0 | ≤ 0.12 | 100 | ≤ 0.12 | 0.25 (≈ 0.308 µM) | 1 (≈ 1.23 µM) | 99 | ≤ 0.12 | 0.25 | 0 | 0.5 (≈ 0.616 µM) | 0 | 100 | 1 (≈ 1.23 µM) | ≤ 0.12 | 100 | 100 | 100 | 100 | 0 | % resistant isolates [6]: 0%; % resistant isolates [9]: 0%; % resistant isolates [15]: 0%; % susceptible isolates [21, 29]: 100%; % resistant isolates [22]: 0%; % resistant isolates [27]: 0% |
